Results on three compounds are retold here after patent publication US20070093894A1, “Incorporation of antimicrobial combinations onto devices to reduce infection” (Baylor College of Medicine, priority 2005, published 2007).

What all share (assay type): cell-based
The subject of assay [1] is Staphylococcus epidermidis. The experiment in a line: Zone of inhibition on agar, antibiotic-coated polyurethane central venous catheter segments. The note with it: 7-french polyurethane central venous catheter segment 10x2 mm, coating solution 100 mg/ml of each antibiotic, long axis parallel to agar; for zone of inhibition at 100000 µg/mL: Staphylococcus epidermidis. The protocol: The device used in this example is a 7-french, polyurethane central venous catheter. Antibiotics were incorporated onto devices by using a patented method (U.S. Pat. No. 6,589,591) that utilized coating solutions that contained 100 mg/ml of minocycline; 100 mg/ml tobramycin; 100 mg/ml gentamicin; 100 mg/ml minocycline and 100 mg/ml tobramycin (minocycline dissolved first); or 100 mg/ml minocycline and 100 mg/ml gentamicin (minocycline dissolved first). The tested catheter segments were 10 mm (long)×2 mm (wide). The cather segments were placed onto agar with their long axis parerrel to the agar. All zone of inhibition are expressed in mm, and table 2 summarizes the results of the zones of inhibition.

Assay [2] relates to Enterococcus faecalis (gram positive). As to the kind of experiment: Zone of inhibition on agar, antibiotic-coated composite hernia patch segments. The note with it: hernia patch (polypropylene mesh/PTFE) segment 10x10x2 mm, coating solution 100 mg/ml of each antibiotic, long axis perpendicular to agar; for zone of inhibition at 100000 µg/mL: Enterococcus faecalis. The protocol: (§1) The device used in this example is a composite hernia patch with polypropylene mesh on one side and polytetrafluoroethylene (PTFE) on the other side. Antibiotics were incorporated onto devices by using a patented method (U.S. Pat. No. 6,589,591) that utilized coating solutions that contained 100 mg/ml of minocycline; 100 mg/ml tobramycin; 100 mg/ml gentamicin; 100 mg/ml minocycline and 100 mg/ml tobramycin (minocycline dissolved first); or 100 mg/ml minocycline and 100 mg/ml gentamicin (minocycline dissolved first). The tested square device segments were 10 mm (long)×10 mm (wide)×2 mm (thick). The device segments were placed onto agar with their long axis perpendicular to the agar (i.e. only 2 mm of the segment was in contact with the agar). All zone of inhibition are expressed in mm, and table 1 summarizes the results of the zones of inhibition.

The test system of assay [3] is Staphyulococcus aureus (gram positive). The description is as above. The note with it: hernia patch (polypropylene mesh/PTFE) segment 10x10x2 mm, coating solution 100 mg/ml of each antibiotic, long axis perpendicular to agar. How it is done:
as §1

The subject of assay [4] is Escherichia coli (gram negative). Described as above. The note with it: hernia patch (polypropylene mesh/PTFE) segment 10x10x2 mm, coating solution 100 mg/ml of each antibiotic, long axis perpendicular to agar; for zone of inhibition at 100000 µg/mL: Escherichia coli. The protocol:
as §1

What is called zone of inhibition is the extent of the growth-free halo in a diffusion test. The low end stands for little suppression of growth, the high end for wide suppression of growth. Take `CN(C)c1ccc(O)c2c1C[C@H]1C[C@H]3[C@H](N(C)C)C(O)=C(C(N)=O)C(=O)[C@@]3(O)C(O)=C1C2=O` [Minocycline, minocycline]: the zone of inhibition at 100000 µg/mL in assay [1] was 30 mm; in assay [2], 3 mm; in assay [3], 11 mm; in assay [4], 3 mm.
Consider `NC[C@H]1O[C@H](O[C@H]2[C@H](O)[C@@H](O[C@H]3O[C@H](CO)[C@@H](O)[C@H](N)[C@H]3O)[C@H](N)C[C@@H]2N)[C@H](N)C[C@@H]1O` [Tobramycin, tobramycin], for which the zone of inhibition at 100000 µg/mL was 14 mm in assay [1], 9 mm in assay [2], 12 mm in assay [3] and 18 mm in assay [4].
With gentamicin, the “zone of inhibition, Staphylococcus epidermidis” value in assay [1] is reported as 6 mm. In addition, the “zone of inhibition, Enterococcus faecalis (gram positive)” value in assay [2] amounted to 0 mm. In addition, in assay [3], the “zone of inhibition, Staphyulococcus aureus (gram positive)” value was 14 mm. In assay [4], the “zone of inhibition, Escherichia coli (gram negative)” value was found to be 11 mm.
